Test results: publication PMC9743092, “Membrane-Active Cyclic Amphiphilic Peptides: Broad-Spectrum Antibacterial Activity Alone and in Combination with Antibiotics” (Journal of Medicinal Chemistry, 2022)
Values after ≈ are worked out from the molar mass of the structure shown. Where two headings read alike, the source gives them in different places. Bridge positions count the residues as written; N and C are the ends. Square brackets hold non-standard residues; d marks the D form. Peptide text beside a SMILES is read from it. * marks the point of attachment. X1 = CC[C@H](C)CCCCC(=O)*; Dab = NCC[C@H](N)C(=O)O

What was measured:
MRSA (ATCC BAA-1556) [1] = assay: microbe, parasite or virus in culture; conditions: Staphylococcus aureus
E. coli (ATCC 25922) [2] = assay: microbe, parasite or virus in culture; conditions: Escherichia coli, ATCC25922, read-out: MIC E. coli (ATCC 25922)
[3] = system: P. aeruginosa (ATCC 27883); assay: microbe, parasite or virus in culture; conditions: Pseudomonas aeruginosa, ATCC27883, 24 h, read-out: MBC P. aeruginosa (ATCC 27883)
[4] = system: K. pneumoniae (ATCC BAA-1705); assay: microbe, parasite or virus in culture; conditions: Klebsiella pneumoniae, ATCCBAA1705, 24 h, read-out: MBC K. pneumoniae (ATCC BAA-1705)
MRSA (ATCC BAA-1556) [5] = assay: microbe, parasite or virus in culture; conditions: Staphylococcus aureus, ATCCBAA1556|MRSA, 24 h, read-out: MBC MRSA (ATCC BAA-1556)
E. coli (ATCC 25922) [6] = assay: microbe, parasite or virus in culture; conditions: Escherichia coli, ATCC25922, 24 h, read-out: MBC E. coli (ATCC 25922)
[7] = system: P. aeruginosa (ATCC 27883); assay: Synergistic checkerboard assay; assay type: cell-based; conditions: Pseudomonas aeruginosa
[8] = system: P. aeruginosa (ATCC 27883); assay: microbe, parasite or virus in culture; conditions: Pseudomonas aeruginosa, ATCC27883, read-out: MIC P. aeruginosa (ATCC 27883)
E. coli (ATCC 25922) [9] = assay: Synergistic checkerboard assay; assay type: cell-based; conditions: Escherichia coli
[10] = system: S. aureus (ATCC BAA-1556); assay: Synergistic checkerboard assay; assay type: cell-based; conditions: Staphylococcus aureus
[11] = system: S. aureus (ATCC 29213), MRSA (ATCC BAA-1556), E. coli (ATCC 25922), E. coli (ATCC BAA-2452); assay: Serial passage resistance development study; assay type: cell-based, S. aureus and E. coli; conditions: 18 repeated passages
E. coli (ATCC 25922) [12] = conditions: antibiotic alone or physical mixture with peptide (1:1 w/w)
[13] = system: K. pneumoniae (ATCC BAA-1705); conditions: antibiotic alone or physical mixture with peptide (1:1 w/w)
[14] = system: K. pneumoniae (ATCC BAA-1705); assay: Synergistic checkerboard assay; conditions: Klebsiella pneumoniae, ATCCBAA1705, read-out: MIC antibiotic alone
[15] = system: P. aeruginosa (ATCC 27883); conditions: antibiotic alone or physical mixture with peptide (1:1 w/w)
[16] = Calcein dye leakage assay; conditions: 50 μg/mL, 100 min
[17] = system: S. pneumonia (ATCC 49619); assay: microbe, parasite or virus in culture; assay type: cell-based; conditions: Streptococcus pneumoniae, ATCC49619; Gram-positive
Procedure: (§1) Daptomycin and polymyxin B were selected as positive controls against Gram-positive and Gram-negative bacteria, respectively.
(§2) All experiments were conducted in triplicate.

[18] = system: Bacillus subtilis (ATCC-6633); assay: microbe, parasite or virus in culture; assay type: cell-based; conditions: ATCC6633, Gram-positive
Procedure: as §1, §2

E. faecium (ATCC 27270) = assay: microbe, parasite or virus in culture; assay type: cell-based; conditions: Enterococcus faecium, ATCC27270; Gram-positive
Procedure: as §1, §2

[19] = system: S. pneumonia (ATCC 51938); assay: microbe, parasite or virus in culture; assay type: cell-based; conditions: Streptococcus pneumoniae, ATCC51938; Gram-positive; penicillin-, clindamycin-, cotrimoxazole-, erythromycin-resistant
Procedure: as §1, §2

E. faecalis (ATCC 51575) = assay: microbe, parasite or virus in culture; assay type: cell-based; conditions: Enterococcus faecalis, ATCC51575; Gram-positive; gentamicin-, streptomycin-, vancomycin-resistant
Procedure: as §1, §2

E. faecalis (ATCC 29212) = assay: microbe, parasite or virus in culture; assay type: cell-based; conditions: Enterococcus faecalis, ATCC29212; Gram-positive
Procedure: as §1, §2

[20] = Calcein dye leakage assay; conditions: 50 μg/mL, 100 min; remark: listed apart in the source
[21] = parameters: method as in PMID 25808204; conditions: cited from earlier work
[22] = system: K. pneumoniae (ATCC BAA-1705); assay: microbe, parasite or virus in culture; conditions: Klebsiella pneumoniae, ATCCBAA1705, read-out: MIC K. pneumoniae (ATCC BAA-1705)
MRSA (ATCC BAA-1556) [23] = conditions: antibiotic alone or physical mixture with peptide (1:1 w/w)
[24] = system: Acinetobacter baumannii (ATCCBAA-1605); assay: microbe, parasite or virus in culture; assay type: cell-based; conditions: ATCCBAA1605, read-out: MIC Acinetobacter baumannii (ATCCBAA-1605)
Procedure: as §1, §2

E. coli (ATCC BAA-2452) = assay: microbe, parasite or virus in culture; assay type: cell-based; conditions: Escherichia coli, ATCCBAA2452, read-out: MIC E. coli (ATCC BAA-2452)
Procedure: as §1, §2

[25] = system: P. aeruginosa (ATCC BAA-1744); assay: microbe, parasite or virus in culture; assay type: cell-based; conditions: Pseudomonas aeruginosa, ATCCBAA1744, read-out: MIC P. aeruginosa (ATCC BAA-1744)
Procedure: as §1, §2

[26] = system: P. aeruginosa (ATCC 10145); assay: microbe, parasite or virus in culture; assay type: cell-based; conditions: Pseudomonas aeruginosa, ATCC10145, read-out: MIC P. aeruginosa (ATCC 10145)
Procedure: as §1, §2

[27] = system: K. pneumoniae (ATCC 13883); assay: microbe, parasite or virus in culture; assay type: cell-based; conditions: Klebsiella pneumoniae, ATCC13883, read-out: MIC K. pneumoniae (ATCC 13883)
Procedure: as §1, §2

[28] = system: human skin fibroblast cells (HeKa)
[29] = system: normal lung (MRC-5) cells
[30] = read-out: MIC MRSA (ATCC BAA-1556)
[31] = ATCC27883, checkerboard, read-out: MIC antibiotic alone
[32] = ATCC25922, checkerboard, read-out: MIC antibiotic alone
[33] = ATCCBAA1556, checkerboard, read-out: MIC antibiotic alone

Row | SMILES | MIC (MRSA (ATCC BAA-1556) [1]; [30]) [µg/mL] | MIC (E. coli (ATCC 25922) [2]) [µg/mL] | MBC [3] [µg/mL] | MBC [4] [µg/mL] | MBC (MRSA (ATCC BAA-1556) [5]) [µg/mL] | MBC (E. coli (ATCC 25922) [6]) [µg/mL] | MIC [7, 31] [µg/mL] | MIC [8] [µg/mL] | MIC (E. coli (ATCC 25922) [9]; [32]) [µg/mL] | MIC [10, 33] [µg/mL] | change in MIC on resistance induction [11] | MIC E. coli (ATCC 25922) (E. coli (ATCC 25922) [12]) [µg/mL] | MIC [14] [µg/mL] | MIC S. aureus (ATCC BAA-1556) (MRSA (ATCC BAA-1556) [23]) [µg/mL] | also measured
1 | C[C@@H](O)[C@H]1C(=O)N2C(C(=O)O)=C(S[C@@H]3CN[C@H](C(=O)N(C)C)C3)[C@H](C)[C@H]12 [meropenem] | 2 (≈ 5.22 µM) | 1 (≈ 2.61 µM) | 4 (≈ 10.4 µM) | 64 (≈ 167 µM) | 8 (≈ 20.9 µM) | 2 (≈ 5.22 µM) | 1 | 1 (≈ 2.61 µM) | 1 | 2 |  |  |  |  | MIC (MRSA (ATCC BAA-1556) [1]; read-out: MIC S. aureus (ATCC BAA-1556)): 2 µg/mL (≈ 5.22 µM)
2 | CCCCCCCCCC(=O)N[C@@H](Cc1c[nH]c2ccccc12)C(=O)N[C@H](CC(N)=O)C(=O)N[C@@H](CC(=O)O)C(=O)N[C@@H]1C(=O)NCC(=O)N[C@@H](CCCN)C(=O)N[C@@H](CC(=O)O)C(=O)N[C@H](C)C(=O)N[C@@H](CC(=O)O)C(=O)NCC(=O)N[C@H](CO)C(=O)N[C@@H]([C@H](C)CC(=O)O)C(=O)N[C@@H](CC(=O)c2ccccc2N)C(=O)O[C@@H]1C [daptomycin] |  |  |  |  | 8 (≈ 4.94 µM) |  | 512 |  | > 128 |  | negligible changes in the MICs | 256 (≈ 158 µM) | 512 |  | MIC K. pneumoniae (ATCC BAA-1705) [13]: 512 µg/mL (≈ 316 µM); MIC P. aeruginosa (ATCC 27883) [15]: 512 µg/mL (≈ 316 µM); calcein dye leakage [16]: around 7%; MIC [17]: 4 µg/mL (≈ 2.47 µM); MIC [18]: 0.5 µg/mL (≈ 0.309 µM); MIC (E. faecium (ATCC 27270)): 4 µg/mL (≈ 2.47 µM); MIC [19]: 8 µg/mL (≈ 4.94 µM); MIC (E. faecalis (ATCC 51575)): 4 µg/mL (≈ 2.47 µM); MIC (E. faecalis (ATCC 29212)): 16 µg/mL (≈ 9.87 µM); calcein dye release [20]: 42%
3 | N=C(N)NCCC[C@H](N)C(=O)O [arginine] |  |  |  |  |  |  |  |  |  |  |  |  |  |  | pKa value of the arginine guanidinium group [21]: 13.8 ± 0.1
4 | CC[C@H](C)CCCCC(=O)N[C@@H](CCN)C(=O)N[C@H](C(=O)N[C@@H](CCN)C(=O)N[C@H]1CCNC(=O)[C@H]([C@@H](C)O)NC(=O)[C@H](CCN)NC(=O)[C@H](CCN)NC(=O)[C@H](CC(C)C)NC(=O)[C@@H](Cc2ccccc2)NC(=O)[C@H](CCN)NC1=O)[C@@H](C)O [polymyxin B] (X1-[Dab]T[Dab][Dab][Dab][dF]L[Dab][Dab]T; lactam 4-C) | 64 (≈ 53.2 µM) | 2 (≈ 1.66 µM) | 2 (≈ 1.66 µM) | 2 (≈ 1.66 µM) |  | 4 (≈ 3.32 µM) |  | 1 (≈ 0.831 µM) |  |  | negligible changes in the MICs |  | 1 | 64 (≈ 53.2 µM) | MIC ([7]; ATCC27883, read-out: MIC antibiotic alone): 1 µg/mL; MIC [22]: 1 µg/mL (≈ 0.831 µM); MIC (E. coli (ATCC 25922) [9]; ATCC25922, read-out: MIC antibiotic alone): 2 µg/mL; MIC ([10]; ATCCBAA1556, read-out: MIC antibiotic alone): 64 µg/mL; MIC [24]: 1 µg/mL (≈ 0.831 µM); MIC (E. coli (ATCC BAA-2452)): 1 µg/mL (≈ 0.831 µM); MIC [25]: 2 µg/mL (≈ 1.66 µM); MIC [26]: 2 µg/mL (≈ 1.66 µM); MIC [27]: 1 µg/mL (≈ 0.831 µM)
5 | O=C(O)c1cn(C2CC2)c2cc(N3CCNCC3)c(F)cc2c1=O [ciprofloxacin] |  |  | 8 (≈ 24.1 µM) | 16 (≈ 48.3 µM) | 32 (≈ 96.6 µM) | 16 (≈ 48.3 µM) |  |  |  | 16 |  | 64 (≈ 193 µM) |  | 16 (≈ 48.3 µM) | 
6 | C[S+](C)[O-] [DMSO (30%), DMSO] |  |  |  |  |  |  |  |  |  |  |  |  |  |  | cell viability (liver (HepaRG) cells): 7–11%; cell viability [28]: 7–11%; cell viability [29]: 7–11%; cell viability (kidney (HEK-293) cells): 7–11%
